Read-outs that look alike come from different tables or passages of the source.
Tests used:
[1] = biological target: human vasopressin V2 receptor (Homo sapiens, UniProt P30518); assay: Receptor binding study, [3H]AVP displacement on CHO cell membranes, human V2
Experimental: Preparation of Chinese hamster ovary (Cho) cell which expresses human vasopressin receptor subtype and production of membrane sample of the cell was conducted according to the method of Tahara et al. (Br. J. Pharmacol., 125, 1463-1470, 1998).
(§1) (ii) Receptor Binding Study
In saturation binding experiment, the membrane sample and [^3H]AVP of several concentrations (0.125 nM to 4.0 nM) were mixed and incubated in microplate wells. In displacement experiment, [^3H]AVP of constant concentrations (0.5 nM to 1.0 nM) and the membrane sample were mixed with Compound A of several concentrations, and incubation was performed. Assay was performed using 50 mM of Tris-HCl (pH=7.4) (total amount: 250 μL) (buffer composition: containing […] of MgCl2 and 0.1% BSA), and incubation was performed at room temperature (25° C.) for one hour. After incubation, suck filtration was immediately performed and reaction was completed when the membrane sample was collected on a glass fiber filter fitted with the microplate. After the filter was washed with an ice-cold Tris-HCl buffer (50 mM Tris-HCl, 10 mM MgCl2, pH 7.4), radioactivity measurement was performed. Nonspecific binding was determined using nonradioactive-labeled AVP (1 μM).

[2] = biological target: human vasopressin V1a receptor (Homo sapiens, UniProt P37288); assay: Receptor binding study, [3H]AVP displacement on CHO cell membranes, human V1a
human vasopressin V1a receptor, sequence (P37288 whole entry): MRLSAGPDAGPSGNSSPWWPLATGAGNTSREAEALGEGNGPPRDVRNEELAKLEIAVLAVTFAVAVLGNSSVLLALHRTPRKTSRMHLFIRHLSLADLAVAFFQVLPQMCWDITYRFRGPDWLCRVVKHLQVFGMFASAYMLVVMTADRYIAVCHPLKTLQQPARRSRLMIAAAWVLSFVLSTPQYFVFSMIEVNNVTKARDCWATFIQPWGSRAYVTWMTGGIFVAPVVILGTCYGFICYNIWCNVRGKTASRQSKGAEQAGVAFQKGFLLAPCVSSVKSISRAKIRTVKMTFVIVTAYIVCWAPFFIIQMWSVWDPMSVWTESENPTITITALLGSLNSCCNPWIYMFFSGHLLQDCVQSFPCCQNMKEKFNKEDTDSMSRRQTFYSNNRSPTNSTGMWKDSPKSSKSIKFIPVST
Experimental: as §1
Assay was performed using 50 mM of Tris-HCl (pH=7.4) (total amount: 250 μL) (buffer composition: containing […] of MgCl2 and 0.1% BSA), and incubation was performed at room temperature (25° C.) for one hour. After incubation, suck filtration was immediately performed and reaction was completed when the membrane sample was collected on a glass fiber filter fitted with the microplate. After the filter was washed with an ice-cold Tris-HCl buffer (50 mM Tris-HCl, 10 mM MgCl2, pH 7.4), radioactivity measurement was performed. Nonspecific binding was determined using nonradioactive-labeled AVP (1 μM).

[3] = [3H]AVP displacement, CHO cell membrane, 25° C., one hour, read-out: Human V2 Ki
[4] = [3H]AVP displacement, CHO cell membrane, 25° C., one hour, read-out: Human V1a Ki

human vasopressin V2 receptor, sequence (P30518 whole entry): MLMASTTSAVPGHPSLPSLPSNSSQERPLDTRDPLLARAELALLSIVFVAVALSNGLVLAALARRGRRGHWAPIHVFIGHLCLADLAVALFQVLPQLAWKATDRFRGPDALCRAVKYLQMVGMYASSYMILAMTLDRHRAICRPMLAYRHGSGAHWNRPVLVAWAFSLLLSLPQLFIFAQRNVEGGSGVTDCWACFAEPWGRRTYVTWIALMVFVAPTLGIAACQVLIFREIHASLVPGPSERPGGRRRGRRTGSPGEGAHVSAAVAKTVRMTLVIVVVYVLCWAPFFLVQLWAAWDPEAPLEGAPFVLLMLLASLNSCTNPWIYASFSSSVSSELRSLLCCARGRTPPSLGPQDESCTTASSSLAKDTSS

Ki [1, 3]	Ki [2, 4]	SMILES	Ki [1]	Ki [2]
7.1 nM	0.13 nM	C[C@H]1CCN(C(=O)c2ccc(-c3ccc4[nH]ccc4c3)c(OCCCN3CCCN(C)CC3)c2)c2ccccc2N1 [Example 109, (4S)-1-[4-(1H-indol-5-yl)-3-[3-(4-methyl-1,4-diazepane-1-yl)propoxy]benzoyl]-4-methyl-2,3,4,5-tetrahydro-1H-1,5-benzodiazepine]	–	–
6.5 nM	0.13 nM	C[C@H]1CCN(C(=O)c2ccc(-c3ccc4[nH]ccc4c3)c(OCCN3CCN(C)CC3)c2)c2ccccc2N1 [Example 110, (4S)-1-[4-(1H-indol-5-yl)-3-[2-(4-methyl-1-piperazinyl)ethoxy]benzoyl]-4-methyl-2,3,4,5-tetrahydro-1H-1,5-benzodiazepine]	–	–
23 nM	0.42 nM	C[C@H]1CCN(C(=O)c2ccc(-c3ccc4[nH]ccc4c3)c(OCCCN(C)CCN(C)C)c2)c2ccccc2N1 [Example 112, N1-[3-[2-(1H-indol-5-yl)-5-[[(4S)-4-methyl-2,3,4,5-tetrahydro-1H-1,5-benzodiazepin-1-yl)carbonyl]phenoxy]propyl]-N1,N2,N2-trimethyl-1,2-ethaneamine]	–	–
5 nM	0.26 nM	CCCN1CCN(CCCOc2cc(C(=O)N3CC[C@H](C)Nc4ccccc43)ccc2-c2ccc3[nH]ccc3c2)CC1 [Example 113, (4S)-1-[4-(1H-indol-5-yl)-3-[3-(4-propyl-1-piperazinyl)propoxy]benzoyl]-4-methyl-2,3,4,5-tetrahydro-1H-1,5-benzodiazepine]	–	–
18 nM	0.22 nM	CCCCN(C)CCCOc1cc(C(=O)N2CC[C@H](C)Nc3ccccc32)ccc1-c1ccc2[nH]ccc2c1 [Example 114, N-[3-[2-(1H-indol-5-yl)-5-[[(4S)-4-methyl-2,3,4,5-tetrahydro-1H-1,5-benzodiazepin-1-yl]carbonyl]phenoxy]propyl]-N-methyl-1-butaneamine]	–	–
11 nM	0.16 nM	CCN(CC)CCCOc1cc(C(=O)N2CC[C@H](C)Nc3ccccc32)ccc1-c1ccc2[nH]ccc2c1 [Example 116, N,N-diethyl-3-[2-(1H-indol-5-yl)-5-[[(4S)-4-methyl-2,3,4,5-tetrahydro-1H-1,5-benzodiazepin-1-yl]carbonyl]phenoxy]-1-propaneamine]	–	–
9.5 nM	0.15 nM	CCN(C)CCCOc1cc(C(=O)N2CC[C@H](C)Nc3ccccc32)ccc1-c1ccc2[nH]ccc2c1 [Example 118, N-ethyl-3-[2-(1H-indol-5-yl)-5-[[(4S)-4-methyl-2,3,4,5-tetrahydro-1H-1,5-benzodiazepin-1-yl]carbonyl]phenoxy]-N-methyl-1-propaneamine]	–	–
10 nM	0.14 nM	CCCN(C)CCOc1cc(C(=O)N2CC[C@H](C)Nc3ccccc32)ccc1-c1ccc2[nH]ccc2c1 [Example 121, N-[2-[2-(1H-indol-5-yl)-5-[[(4S)-4-methyl-2,3,4,5-tetrahydro-1H-1,5-benzodiazepin-1-yl]carbonyl]phenoxy]ethyl]-N-methyl-1-propaneamine]	–	–
9.9 nM	0.38 nM	C[C@H]1CCN(C(=O)c2ccc(-c3ccc4[nH]ccc4c3)c(OCCCN3CCC(N(C)C)CC3)c2)c2ccccc2N1 [Example 123]	–	–
20 nM	0.37 nM	CCCCN(CC)CCCOc1cc(C(=O)N2CC[C@H](C)Nc3ccccc32)ccc1-c1ccc2[nH]ccc2c1 [Example 124, N-ethyl-N-[3-[2-(1H-indol-5-yl)-5-[[(4S)-4-methyl-2,3,4,5-tetrahydro-1H-1,5-benzodiazepin-1-yl]carbonyl]phenoxy]propyl]-1-butaneamine]	–	–
39 nM	0.2 nM	CCCN1CCN(CCCOc2cc(C(=O)N3CC[C@@H](C)Nc4ccccc43)ccc2-c2ccc3[nH]ccc3c2)CC1 [Example 128, (4R)-1-[4-(1H-indol-5-yl)-3-[3-(4-propyl-1-piperazinyl)propoxy]benzoyl]-4-methyl-2,3,4,5-tetrahydro-1H-1,5-benzodiazepine]	–	–
88 nM	0.4 nM	CCCN(C)CCCOc1cc(C(=O)N2CC[C@H](C)Nc3ccccc32)ccc1-c1ccc(NCC)cc1 [Example 129, N-ethyl-2′-[3-[methyl(propyl)amino]propoxy]-4′-[[(4S)-4-methyl-2,3,4,5-tetrahydro-1H-1,5-benzodiazepin-1-yl]carbonyl][1,1′-biphenyl]-4-amine]	–	–

The next lines start with the molecule.

SMILES	Ki [1, 3]	Ki [2, 4]	Ki [1]	Ki [2]
Cc1ccc2c(c1)NC(C)CCN2C(=O)c1ccc(-c2ccc3[nH]ccc3c2)c(OCCN2CCOCC2)c1 (stereo not drawn) [Example 104, 5-[(4,7-dimethyl-2,3,4,5-tetrahydro-1H-1,5-benzodiazepin-1-yl]carbonyl]-2-(1H-indol-5-yl)phenyl 2-(4-morpholinyl)ethyl ether]	3.5 nM	0.35 nM	–	–
CCCN(C)CCCOc1cc(C(=O)N2CC[C@H](C)Nc3ccccc32)ccc1-c1ccc(NC)cc1 [Example 105, N-methyl-2′-[3-[methyl(propyl)amino]propoxy]-4′-[[(4S)-4-methyl-2,3,4,5-tetrahydro-1H-1,5-benzodiazepin-1-yl]carbonyl][1,1′-biphenyl]-4-amine]	54 nM	0.16 nM	–	–
CNc1ccc(-c2ccc(C(=O)N3CC[C@H](C)Nc4ccccc43)cc2OCCCN2C(=O)CNC2=O)cc1 [Example 106, 3-[3-[[4′-(methylamino)-4-[[(4S)-4-methyl-2,3,4,5-tetrahydro-1H-1,5-benzodiazepin-1-yl]carbonyl][1,1′-biphenyl]-2-yl]oxy]propyl]-2,4-imidazolidinedion]	2 nM	0.14 nM	–	–
C[C@H]1CCN(C(=O)c2ccc(-c3ccc4[nH]ccc4c3)c(OCCCN3CCC(N4CCOCC4)CC3)c2)c2ccccc2N1 [Example 107, (4S)-1-[4-(1H-indol-5-yl)-3-[3-[4-(4-morpholinyl)-1-piperidinyl]propoxy]benzoyl]-4-methyl-2,3,4,5-tetrahydro-1H-1,5-benzodiazepine]	33 nM	0.13 nM	–	–
CCCCCN(C)CCCOc1cc(C(=O)N2CC[C@H](C)Nc3ccccc32)ccc1-c1ccc2[nH]ccc2c1 [Example 108, N-[3-[2-(1H-indol-5-yl)-5-[[(4S)-4-methyl-2,3,4,5-tetrahydro-1H-1,5-benzodiazepin-1-yl]carbonyl]phenoxy]propyl]-N-methyl-1-pentaneamine]	21 nM	0.42 nM	–	–
C[C@@H]1CN(CCCOc2cc(C(=O)N3CC[C@H](C)Nc4ccccc43)ccc2-c2ccc3[nH]ccc3c2)C[C@H](C)O1 [Example 115, (4S)-1-[3-[3-[(2R,6S)-2,6-dimethylmorpholinyl]propoxy]-4-(1H-indol-5-yl)benzoyl]-4-methyl-2,3,4,5-tetrahydro-1H-1,5-benzodiazepine]	4.9 nM	0.27 nM	–	–
CCCN(C)CCCCOc1cc(C(=O)N2CC[C@H](C)Nc3ccccc32)ccc1-c1ccc2[nH]ccc2c1 [Example 117, N-[4-[2-(1H-indol-5-yl)-5-[[(4S)-4-methyl-2,3,4,5-tetrahydro-1H-1,5-benzodiazepin-1-yl]carbonyl]phenoxy]butyl]-N-methyl-N-propylamine]	–	–	12 nM	0.21 nM
C[C@H]1CCN(C(=O)c2ccc(-c3ccc4[nH]ccc4c3)c(C(=O)OCCCN(C)C)c2)c2ccccc2N1 [Example 120, 3-(dimethylamino)propyl 2-(1H-indol-5-yl)-5-[[(4S)-4-methyl-2,3,4,5-tetrahydro-1H-1,5-benzodiazepin-1-yl]carbonyl]benzoate]	93 nM	0.2 nM	–	–
CCCCN1CCN(CCCOc2cc(C(=O)N3CC[C@H](C)Nc4ccccc43)ccc2-c2ccc3[nH]ccc3c2)CC1 [Example 122, (4S)-1-[3-[3-(4-butyl-1-piperazinyl)propoxy]-4-(1H-indol-5-yl)benzoyl]-4-methyl-2,3,4,5-tetrahydro-1H-1,5-benzodiazepine]	5.1 nM	0.21 nM	–	–
CCCN(CC)CCCOc1cc(C(=O)N2CC[C@H](C)Nc3ccccc32)ccc1-c1ccc2[nH]ccc2c1 [Example 125, N-ethyl-3-[2-(1H-indol-5-yl)-5-[[(4S)-4-methyl-2,3,4,5-tetrahydro-1H-1,5-benzodiazepin-1-yl]carbonyl]phenoxy]-N-propyl-1-propaneamine]	15 nM	0.18 nM	–	–
CCCN(C)CCCCCOc1cc(C(=O)N2CC[C@H](C)Nc3ccccc32)ccc1-c1ccc2[nH]ccc2c1 [Example 126]	7 nM	0.24 nM	–	–
CCCN(C)CCCOc1cc(C(=O)N2CC[C@@H](C)Nc3ccccc32)ccc1-c1ccc2[nH]ccc2c1 [Example 127, N-[3-[2-(1H-indol-5-yl)-5-[[(4R)-4-methyl-2,3,4,5-tetrahydro-1H-1,5-benzodiazepin-1-yl)carbonyl]phenoxy]propyl]-N-methyl-N-propylamine]	77 nM	0.21 nM	–	–

Source: patent US20080076760A1, “2,3,4,5-TETRAHYDRO-1H-1,5-BENZODIAZEPINE DERIVATIVE AND MEDICINAL COMPOSITION” (priority 2004, published 2008)
